Source: US5990094A, “Inhibitors of sorotonin N-acetyltransferase” (The Rockefeller University, priority 1998, dated 1999)
Blank lines part the entries; values can stand above or below the compound they belong to.

Experiments:
AANAT = conditions: 2-fluorohistidine replaces histidine; cited from earlier work
GST-AANAT = molecular target: T1, GST-AANAT (Ovis aries, UniProt Q29495); assay: Effect of DTNB on GST-AANAT activity; format: biochemical, sheep
T1 construct: The entire open reading frame of the DNA encoding sheep AANAT in the plasmid vector pET15b; made in house; host or cells: Escherichia coli BL21(DE3)pLysS
Procedure: The potential difficulty with this approach was that reducing agents such as dithiothreitol and β-mercaptoethanol react with DTNB (Ellman's reagent). Indeed, GST-AANAT is somewhat unstable in the absence of reducing agents, losing greater than 50% activity within 2 h at 4° C. (data not shown). However, the enzyme was stable within the short incubation periods used in these studies (less than 3 min). It was shown unequivocally that CoASH generation was coupled tightly to N-acetyltryptamine formation, and the activity was linear with time and enzyme concentration.

[1] = test system: intracellular receptors for melatonin; conditions: intracellular orphan receptors vs G-protein family; cited from earlier work
[2] = people; cited from earlier work

T1 sequence (Q29495 other isoform, or with tags, fused parts or gaps): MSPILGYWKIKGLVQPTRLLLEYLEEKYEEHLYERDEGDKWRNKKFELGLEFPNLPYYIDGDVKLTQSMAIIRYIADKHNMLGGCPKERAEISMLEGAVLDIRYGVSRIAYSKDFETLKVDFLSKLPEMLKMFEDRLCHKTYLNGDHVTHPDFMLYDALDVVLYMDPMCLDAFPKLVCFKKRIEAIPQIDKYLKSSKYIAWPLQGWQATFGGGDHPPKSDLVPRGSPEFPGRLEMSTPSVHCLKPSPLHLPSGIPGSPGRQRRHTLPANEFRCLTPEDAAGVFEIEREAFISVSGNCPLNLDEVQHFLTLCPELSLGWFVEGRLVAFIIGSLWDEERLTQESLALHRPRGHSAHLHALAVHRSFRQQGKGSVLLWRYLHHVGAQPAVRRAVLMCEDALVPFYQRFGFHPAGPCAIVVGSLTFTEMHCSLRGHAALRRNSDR

SMILES: N[C@@H](Cc1c[nH]c(F)n1)C(=O)O [2-fluorohistidine]
- induction of AANAT in the pineal (AANAT): induction of AANAT in the pineal is blocked

- effect on GST-AANAT activity (GST-AANAT): inhibited GST-AANAT activity
SMILES: O=C(O)c1cc(SSc2ccc([N+](=O)[O-])c(C(=O)O)c2)ccc1[N+](=O)[O-] [DTNB, 5,5'-dithiobis-(2-nitrobenzoic acid]

SMILES: COc1ccc2[nH]cc(CCNC(C)=O)c2c1 [Melatonin, 5-methoxy-N-acetyltryptamine]
- Kd of binding and activation, higher compared to G-protein family receptors [1]: 10-100 fold
- oral bioavailability variability [2]: 25 fold range
